Here are results for 17 molecules from US20230069963A1, “PYRAZOLO[1,5-A]PYRIMIDINE MACROCYCLIC COMPOUND” (priority 2018, published 2023).

Structures can show the parent of a compound that is named as a salt.

The first experiment concerns RSV ATCC VR-1540 (A2). Briefly: microbe, parasite or virus in culture. It is filed as cell-based. Particulars: Hep2 cells, incubated for 4 days, CPE detected with XTT assay (absorbance 450 nm); read-out: EC50 (nmol/L) against RSV A2 strain. A general note: Tetrazolium dyes change colour on reduction, which living cells bring about.
“(18aS)-13-(azetidin-1-yl)-2-fluoro-7-(hydroxymethyl)-11-methyl-6,7,8,9,10,11,19,20,21,22-decahydro-18aH,24H-18,15-(metheno)pyrido[2,1-l]pyrimido[6,1-h][1,4,7,9,10,13]benzoxapentaazacyclohexadecin-24-one [Example 146]”: the EC50 worked out at 20.8 nmol/L.

The same experiment, now with this note: human respiratory syncytial virus, HEp-2, 96 h; Hep2 cells, incubated for 4 days, CPE detected with XTT assay (absorbance 450 nm); read-out: EC50 (nmol/L) against RSV A2 strain.
On to `CN1CCN(C)c2cc(N3CC(N)C3)nc3cc(nn23)[C@@H]2CCCCN2C(=O)c2cc(F)ccc2OCC1=O` [Example 8, (18aS)-13-(3-aminoazetidin-1-yl)-2-fluoro-8,11-dimethyl-8,9,10,11,19,20,21,22-octahydro-18aH,24H-18,15-(metheno)pyrido[2,1-l]pyrimido[6,1-h][1,4,7,9,10,13]benzoxapentaazacyclohexadecine-7,24(6H)-dione], for which the EC50 is 6.3 nmol/L. The same measure, in the same setting: in the case of `CN1CCCCOc2ccc(Cl)cc2C(=O)N2CCCCC2c2cc3nc(N4CC[C@H](N)C4)cc1n3n2` (stereo partly drawn) [Example 254, (23aS)-18-[(3S)-3-aminopyrrolidin-1-yl]-8-chloro-16-methyl-1,3,4,13,14,15,16,23a-octahydro-2H,6H,12H-23,20-(metheno)pyrido[2,1-k]pyrimido[6,1-g][1,6,8,9,12]benzoxatetraazacyclopentadecin-6-one] it was 3.28 nmol/L. Still for that read-out and setting: as for `NC1CN(c2cc3n4nc(cc4n2)[C@@H]2CCCCN2C(=O)c2cc(F)ccc2OCC(=O)NCCN3C2CC2)C1` [Example 14, (18aS)-13-(3-aminoazetidin-1-yl)-11-cyclopropyl-2-fluoro-8,9,10,11,19,20,21,22-octahydro-18aH,24H-18,15-(metheno)pyrido[2,1-l]pyrimido[6,1-h][1,4,7,9,10,13]benzoxapentaazacyclohexadecine-7,24(6H)-dione], the figure is 2.31 nmol/L; as for `Cc1ccc2c(c1)C(=O)N1CCCC[C@H]1c1cc3nc(N4CC(O)C4)cc(n3n1)N(C)CCN(S(C)(=O)=O)CCO2` [Example 179, (18aS)-13-(3-hydroxyazetidin-1-yl)-8-(methanesulfonyl)-2,11-dimethyl-6,7,8,9,10,11,19,20,21,22-decahydro-18aH,24H-18,15-(metheno)pyrido[2,1-l]pyrimido[6,1-h][1,4,7,9,10,13]benzoxapentaazacyclohexadecin-24-one], 7.33 nmol/L; as for `Cc1c(NCCN)nc2cc3nn2c1NCCCCOc1ccc(Cl)cc1C(=O)N1CCCC[C@@H]31` [Example 285, (23aS)-18-[(2-aminoethyl)amino]-8-chloro-17-methyl-1,3,4,13,14,15,16,23a-octahydro-2H,6 H,12H-23,20-(metheno)pyrido[2,1-k]pyrimido[6,1-g][1,6,8,9,12]benzoxatetraazacyclopentadecin-6-one hydrochloride], 11.9 nmol/L. Same read-out and setting: as for `CCC1c2cc3nc(N4CCC(N)C4)cc(n3n2)N(C)CCCCCOc2ccc(C)cc2C(=O)N1C` (stereo in doubt) [Example 230, (18S)-3-[(3S)-3-aminopyrrolidin-1-yl]-18-ethyl-5,14,17-trimethyl-5,6,7,8,9,10,17,18-octahydro-16H-19,1-(metheno)pyrimido[6,1-h][1,7,9,10,13]benzoxatetraazacyclohexadecin-16-one], the figure is 11.8 nmol/L. With `Cc1c(N2CCC(N)C2)nc2cc3nn2c1NCCOCCOc1ccc(Cl)cc1C(=O)N1CCCCC31` [Example 299, (18aS)-13-[(3S)-3-aminopyrrolidin-1-yl]-2-chloro-12-methyl-6,7,10,11,19,20,21,22-octahydro-9H,18aH,24H-18,15-(metheno)pyrido[2,1-l]pyrimido[6,1-h][1,4,7,9,10,13]benzodioxatetraazacyclohexadecin-24-one], the EC50 worked out at 9.69 nmol/L.

As for `Cc1c(CCCN)nc2cc3nn2c1N(C)CCNC(=O)COc1ccc(Cl)cc1C(=O)N1CCCC[C@@H]31` [Example 75, (18aS)-13-(3-aminopropyl)-2-chloro-11,12-dimethyl-8,9,10,11,19,20,21,22-octahydro-18aH, 24H-18,15-(metheno)pyrido[2,1-l]pyrimido[6,1-h][1,4,7,9,10,13]benzoxapentaazacyclohexadecine-7,24 (6H)-dione], the EC50 amounted to 1 nmol/L. Turning to `CC[C@H]1c2cc3nc(N4CC[C@H](N)C4)cc(n3n2)N(C)CCCOc2ccc(C)cc2C(=O)N1C` [Example 238, (16S)-3-[(3S)-3-aminopyrrolidin-1-yl]-16-ethyl-5,12,15-trimethyl-5,6,7,8,15,16-hexahydro-14H-17,1-(metheno)pyrimido[6,1-f][1,5,7,8,11]benzoxatetraazacyclotetradecin-14-one], the EC50 came out at 28 nmol/L. The same measure, in the same setting: in the case of `CCc1ccc2c(c1)C(=O)N(C)[C@@H](CC)c1cc3nc(N4CC[C@H](N)C4)cc(n3n1)N(C)CCCS(=O)(=O)N2` [Example 303, (17S)-3-[(3S)-3-aminopyrrolidin-1-yl]-13,17-diethyl-5,16-dimethyl-7,8,16,17-tetrahydro-5H-18,1-(metheno)-9λ^6-pyrimido[6,1-g][2,1,6,8,9,12]benzothiapentaazacyclopentadecine-9,9,15 (6H,10H)-trione] it was 10.5 nmol/L; in that of `CC[C@H]1c2cc3nc(N4CC[C@H](N)C4)c(C)c(n3n2)N(C)CCCCCOc2ccccc2C(=O)N1C` [Example 233, (18S)-3-[(3S)-3-aminopyrrolidin-1-yl]-18-ethyl-4,5,17-trimethyl-5,6,7,8,9,10,17,18-octahydro-16H-19,1-(metheno)pyrimido[6,1-h][1,7,9,10,13]benzoxatetraazacyclohexadecin-16-one], 39.5 nmol/L; in that of `Cc1c(N2CCC(N)C2)nc2cc3nn2c1NCCCCOc1ccc(Cl)cc1C(=O)N1CCCCC31` [Example 283, (23aS)-18-[(3S)-3-aminopyrrolidin-1-yl]-8-chloro-17-methyl-1,3,4,13,14,15,16,23a-octahydro-2H,6H,12H-23,20-(metheno)pyrido[2,1-k]pyrimido[6,1-g][1,6,8,9,12]benzoxatetraazacyclopentadecin-6-one], 6.28 nmol/L. On the same count and under the same terms, as for `Cc1c(N2CCC(N)C2)nc2cc3nn2c1N(C)CCCCOc1ccc(Cl)cc1C(=O)N1CCCCC31` [Example 286, (23aS)-18-[(3S)-3-aminopyrrolidin-1-yl]-8-chloro-16,17-dimethyl-1,3,4,13,14,15,16,23a-octahydro-2H,6H,12H-23,20-(metheno)pyrido[2,1-k]pyrimido[6,1-g][1,6,8,9,12]benzoxatetraazacyclopentadecin-6-one], the figure is 20.8 nmol/L; as for `CN1CCNC(C(F)(F)F)COc2ccc(Cl)cc2C(=O)N2CCCCC2c2cc3nc(N4CC(N)C4)cc1n3n2` (single isomer, unassigned) [Example 338], 2.37 nmol/L. On the same count and under the same terms, in the case of `CC[C@H]1c2cc3nc(N4CC[C@H](N)C4)c(C)c(n3n2)N(C)CCCCNc2ccc(C)cc2C(=O)N1C` [Example 223, (17S)-3-[(3S)-3-aminopyrrolidin-1-yl]-17-ethyl-4,5,13,16-tetramethyl-5,6,7,8,9,10,16,17-octahydro-15H-18,1-(metheno)pyrimido[6,1-g][1,6,8,9,12]benzopentaazacyclopentadecin-15-one] it was 1.34 nmol/L; in that of `Cc1c(NCCN)nc2cc3nn2c1N(C)CCCS(=O)(=O)Nc1ccc(Cl)cc1C(=O)N1CCCC[C@@H]31` [Example 327, (23aS)-18-[(2-aminoethyl)amino]-8-chloro-16,17-dimethyl-1,3,4,13,14,15,16,23a-octahydro-2H,6H-23,20-(metheno)-12λ^6-pyrido[2,1-k]pyrimido[6,1-g][2,1,6,8,9,12]benzothiapentaazacyclopentadecine-6,12,12(11H)-trione], 1.72 nmol/L.
